Experimental data reported in article PMC8020931, “Spectroscopic and in silico investigation of the interaction between GH1 β‐glucosidase and ginsenoside Rb1” (Food Science & Nutrition, 2021).

Target: T1, β‐glucosidase (GH1 family, bglB) (Paenibacillus polymyxa, UniProt P22505)
T1 construct: full-length protein encoded by bglB (448 aa, GenBank M60211.1), six His-tags, pET-28a(+), expressed in E. coli BL21(DE3)
Test: LSPR (enzyme immobilised on COOH chip, […] model); supported by fluorescence quenching, UV-Vis and CD
Format: binding

T1 sequence (P22505 whole entry): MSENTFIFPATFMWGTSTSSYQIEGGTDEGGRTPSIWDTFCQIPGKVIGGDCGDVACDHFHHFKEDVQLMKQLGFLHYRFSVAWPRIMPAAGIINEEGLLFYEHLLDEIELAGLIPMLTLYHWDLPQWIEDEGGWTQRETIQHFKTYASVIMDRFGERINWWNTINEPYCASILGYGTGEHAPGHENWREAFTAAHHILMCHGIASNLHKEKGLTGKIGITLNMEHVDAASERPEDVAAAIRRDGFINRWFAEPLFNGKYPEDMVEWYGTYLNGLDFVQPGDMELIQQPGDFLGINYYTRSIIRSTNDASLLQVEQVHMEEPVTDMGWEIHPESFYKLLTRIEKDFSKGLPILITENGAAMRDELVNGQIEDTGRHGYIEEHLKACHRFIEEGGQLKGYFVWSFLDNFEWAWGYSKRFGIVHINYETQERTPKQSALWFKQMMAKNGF

## CC(C)=CCC[C@](C)(O[C@@H]1O[C@H](CO[C@@H]2O[C@H](CO)[C@@H](O)[C@H](O)[C@H]2O)[C@@H](O)[C@H](O)[C@H]1O)[C@H]1CC[C@]2(C)[C@@H]1[C@H](O)C[C@@H]1[C@@]3(C)CC[C@H](O[C@@H]4O[C@H](CO)[C@@H](O)[C@H](O)[C@H]4O[C@@H]4O[C@H](CO)[C@@H](O)[C@H](O)[C@H]4O)C(C)(C)[C@@H]3CC[C@]12C [ginsenoside Rb1]
  Kd: 524 µM
